This is an account of results in article PMC3179866, “Antiproliferative Activity of Xanthones Isolated from Artocarpus obtusus” (Journal of Biomedicine and Biotechnology, 2011).

What is called IC50 is the concentration that inhibits the measured activity by half.

Assay [1] has as its system HL60 (human promyelocytic leukemia) cells. As to the kind of experiment: MTT cytotoxicity assay, HL60. It is filed as cell-based. The following applies: HL-60, 72 h, 72 hours continuous exposure. The source says:
(§1) The cancerous and noncancerous cell lines (suspension and anchorage-dependent cells) were obtained from the American Type Culture Collection (ATCC) and the RIKEN Cell Bank (RCB). The cancerous cell lines used were HL-60 (human acute promyelocytic leukemia) (RCB), K562 (human chronic myeloid leukemia) (ATCC), MCF7 (human estrogen receptor (ER+) positive breast cancer) (ATCC), HeLa (human cervical cancer) (ATCC), HepG2 (human hepatocarcinoma) (ATCC), HT29 (human colon cancer) (RCI), and MDA-MB 231 (human estrogen receptor (ER−) negative) (ATCC). The noncancerous cell line and normal cells were 3T3 (Mouse embryo fibroblast) (ATCC), MCF10A (human nontumorigenic breast cell line) (ATCC) and PBMC (human peripheral blood mononuclear cells). PBMCs were obtained from one of the authors herself. Blood (10–12 mL) was taken from the donor by using the 25 mL syringe. The blood sample was diluted with same volume of PBS. The diluted blood sample was carefully layered on Ficoll-Paque Plus (Amersham Biosciences, USA) the ratio of 2 : 1. The mixture was centrifuged at 1500× g for 40 minutes at 18–20°C. The undisturbed lymphocyte layer was carefully transferred into centrifuge tube. […]
(§2) The colorimetric assay was performed on the isolated compounds using a modified microculture tetrazolium salt (MTT) assay (Sigma, USA). […] After incubation, the fractions of surviving cells were determined relative to the untreated cell population using the colorimetric MTT assay. In this method, the viabilities of the cells were determined by measuring the amount of blue formazan crystals formed after 20 mL of freshly prepared MTT solution (5 mg in 1 mL PBS) was added to each well followed by four hours of incubation at 37°C. […] Finally, the absorbance (OD) of each well at 570 nm of wavelength was read using the microplate reader (ELISA reader, EL340 Biokinetic Reader, Bio-Tek Instrumentation). […] The percentage of cell viability was determined as follows: […]

Assay [2] relates to K562 (human chronic myeloid leukemia) cells. Kind of assay: MTT cytotoxicity assay, K562. Format: cell-based. The settings on record: K562, 72 h, 72 hours continuous exposure.
Excerpt: (§3) The cancerous and noncancerous cell lines (suspension and anchorage-dependent cells) were obtained from the American Type Culture Collection (ATCC) and the RIKEN Cell Bank (RCB). The cancerous cell lines used were HL-60 (human acute promyelocytic leukemia) (RCB), K562 (human chronic myeloid leukemia) (ATCC), MCF7 (human estrogen receptor (ER+) positive breast cancer) (ATCC), HeLa (human cervical cancer) (ATCC), HepG2 (human hepatocarcinoma) (ATCC), HT29 (human colon cancer) (RCI), and MDA-MB 231 (human estrogen receptor (ER−) negative) (ATCC). […]
as §2

The subject of assay [3] is MCF7 (human estrogen receptor (ER+) positive breast cancer) cells. Kind of assay: MTT cytotoxicity assay, MCF7. It is filed as cell-based. The following applies: 72 hours continuous exposure.
Excerpt: The cancerous and noncancerous cell lines (suspension and anchorage-dependent cells) were obtained from the American Type Culture Collection (ATCC) and the RIKEN Cell Bank (RCB). The cancerous cell lines used were HL-60 (human acute promyelocytic leukemia) (RCB), K562 (human chronic myeloid leukemia) (ATCC), MCF7 (human estrogen receptor (ER+) positive breast cancer) (ATCC), HeLa (human cervical cancer) (ATCC), HepG2 (human hepatocarcinoma) (ATCC), HT29 (human colon cancer) (RCI), and MDA-MB 231 (human estrogen receptor (ER−) negative) (ATCC). The noncancerous cell line and normal cells were 3T3 (Mouse embryo fibroblast) (ATCC), MCF10A (human nontumorigenic breast cell line) (ATCC) and PBMC (human peripheral blood mononuclear cells). PBMCs were obtained from one of the authors herself. Blood (10–12 mL) was taken from the donor by using the 25 mL syringe. The blood sample was diluted with same volume of PBS. The diluted blood sample was carefully layered on Ficoll-Paque Plus (Amersham Biosciences, USA) the ratio of 2 : 1. The mixture was centrifuged at 1500× g for 40 minutes at 18–20°C. The undisturbed lymphocyte layer was carefully transferred into centrifuge tube. The lymphocyte was washed and spun down three times by adding 10 mL sterile PBS and to get the pellet and resuspended in RPMI 1640 (Sigma, USA) with 100 IU/mL of penicillin, 100 μg/mL of streptomycin (Flowlab, Australia), and 10% v/v Fetal Bovine Serum (FBS) (PAA, Austria). Cell counting was performed to determine the PBMC number in equal volume of trypan blue.
as §2, with “USA). Varying concentrations of 0.46, 0.93, 1.87, 3.75, 7.5, 15, and 30 μg/mL of pyranocycloartobiloxanthone A (1), dihydroartoindonesianin C (2), and pyranocycloartobiloxanthone B (3) were prepared from the substock solutions by serial dilution in RPMI 1640 to give a volume of 100 μL in each microtitre plate well (96-flat bottom microwell plates). Each well was then added with 100 μL of cell lines in complete growth media (RPMI 1640) 5 × 10^5 cells/mL.” for “USA).”
(Tetrazolium assays rely on reduction of a dye to a coloured formazan, in cell work by metabolically active cells.)

Assay [4] has as its system HeLa (human cervical cancer) cells. As to the kind of experiment: MTT cytotoxicity assay, HeLa. The settings on record: 72 hours continuous exposure. It is filed as cell-based.
Excerpt: as §3, §2

For assay [5], the system named is MDA-MB 231 (human estrogen receptor (ER-) negative) cells. Kind of assay: MTT cytotoxicity assay, MDA-MB 231. It is filed as cell-based. The settings on record: MDA-MB 231, MTT, 72 hours continuous exposure.
Excerpt: as §3, §2

Assay [6] relates to HT29 (human colon cancer) cells. Kind of assay: MTT cytotoxicity assay, HT29. It is filed as cell-based. The following applies: HT-29, 72 hours continuous exposure.
Excerpt: as §3, §2

For assay [7], the system named is HepG2 (human hepatocarcinoma) cells. As to the kind of experiment: MTT cytotoxicity assay, HepG2. It is filed as cell-based. The settings on record: 72 hours continuous exposure.
Excerpt: as §3, §2

For assay [8], the system named is 3T3 (mouse embryo fibroblast) cells. As to the kind of experiment: MTT cytotoxicity assay, 3T3. The following applies: 3T3, MTT, 72 hours continuous exposure. It is filed as cell-based.
Excerpt: as §3, §2

Assay [9] relates to MCF10A (human nontumorigenic breast cell line). As to the kind of experiment: MTT cytotoxicity assay, MCF10A. It is filed as cell-based. The settings on record: MCF10A (normal), 72 hours continuous exposure.
Excerpt: as §3, §2

The subject of assay [10] is PBMC (human peripheral blood mononuclear cells). As to the kind of experiment: MTT cytotoxicity assay, PBMC. Format: cell-based. The settings on record: PBMC (normal), 72 hours continuous exposure.
Excerpt: as §1, §2

The subject of assay [11] is HL60 cells. Kind of assay: Cell proliferation ELISA BrdU assay, HL60. The following applies: HL60, treated at IC50 concentration (2 μg/mL). It is filed as cell-based, human. On the procedure:
(§4) This assay was conducted to determine the antiproliferative effects of the tested compound. In this assay, three different concentrations of compound or test sample were prepared together with control. The concentration chosen were 1 μg/mL, the IC50 concentration, and 20 μg/mL. Two types of cells were selected: HL-60 (suspension) and MCF7 (adherent) cells, since they gave the most significant results for the cytotoxic activity. The procedures are according to the instruction manual from Roche. Each sample was assayed in triplicate, and control samples include a blank (no cells) and background (without BrdU). The cells were treated by pyranocycloartobiloxanthone A (1) for 24, 48, and 72 hours. The cells were cultured together with various dilutions of test substance (tested compound) in 96-well MP flat bottom in a final volume of 100 μL/well, and 10 μL BrdU label (diluted by 1/2000 in media) was added to each well and incubated for 24 hour at 37°C. BrdU label was then replaced with 200 μL of fix/denaturing solution for 30 min at room temperature (25°C) and removed by inverting the plate. The anti-BrdU-POD working solution (100 μL/well) (diluted by 1/100 in dilution buffer) was added and incubated for one hour at room temperature. The cells were washed three times with wash buffer and once with dH2O. Then, removed dH2O and 100 μL of substrate solution was added to each well and incubated for 15 min at room temperature in the dark. The stop solution (100 μL/well) was added, and the absorbance was measured using ELISA reader at 450 nm, (reference wavelength 690). The activity was observed by the optical density (OD) of the absorbance at 450 nm, and graphs were plotted from the optical density obtained against time of exposure for each cell lines.
A general note: In an ELISA, binding on a coated surface is turned into a signal by an enzyme label.

Assay [12] deals with MCF7 cells. As to the kind of experiment: Cell proliferation ELISA BrdU assay, MCF7. The settings on record: MCF7, treated at IC50 concentration (5 μg/mL). It is filed as cell-based, human. On the procedure: as §4
The subject of assay [13] is HL60 cells. Kind of assay: Acridine orange / propidium iodide staining, HL60. It is filed as cell-based, human. The following applies: HL60, 2 μg/mL (IC50), 72 hours. Here is the method:
(§5) Cell suspensions were mixed with an equal volume of staining solution (1 : 1) containing 10 μg/mL acridine orange and 10 μg/mL propium iodide (dissolved in PBS) and observed under fluorescence microscope within 30 minutes. The viable (green intact cells), apoptotic (green shrinking cells with condensed of fragmented nucleus), and necrotic (red cells) were the morphological changes that were examined under fluorescence microscope.

Assay [14] relates to MCF7 cells. Kind of assay: Acridine orange / propidium iodide staining, MCF7. Format: cell-based, human. The following applies: MCF7, 5 μg/mL (IC50), 72 hours. Here is the method:
as §5

The structures appear in SMILES notation. Values after ≈ are worked out from the molar mass of the structure shown. Like-named read-outs stand apart in the source and are kept apart here.

For `C=C(C)c1cc2c(=O)c3c(O)cc4c(c3oc2c2c1C(C)(O)CC2=O)C=CC(C)(C)O4` (stereo not drawn) [compound 2, dihydroartoindonesianin C], the half-inhibitory concentration (IC50) in [1] is 26 ± 0.8 µg/mL (≈ 62.1 µM); in assay [2], over 30 µg/mL; in [3] it was 27 ± 1.9 µg/mL (≈ 64.5 µM).

For the compound `CC1Oc2c(O)cc(O)c3c2C(Cc2c-3oc3c4c(cc(O)c3c2=O)OC(C)(C)C=C4)C1O` (stereo not drawn) [compound 3, pyranocycloartobiloxanthone B], the IC50 in [1] is 17 ± 0.8 µg/mL (≈ 37.7 µM); in assay [2] it was over 30 µg/mL; in [3], 23 ± 1.3 µg/mL (≈ 51.1 µM).

For the compound `CC1C(O)Oc2c(O)cc(O)c3c2C1Cc1c-3oc2c3c(cc(O)c2c1=O)OC(C)(C)C=C3` (stereo not drawn) [compound 1, pyranocycloartobiloxanthone A], the half-maximal inhibitory concentration (IC50) in assay [3] came out at 5 ± 1.2 µg/mL (≈ 11.1 µM); in assay [4] it was 8 ± 3.3 µg/mL (≈ 17.8 µM); in [5] it was 12 ± 1.1 µg/mL (≈ 26.6 µM); in assay [6] it was 14 ± 1.5 µg/mL (≈ 31.1 µM); in [7], 20 ± 2 µg/mL (≈ 44.4 µM); in [8], 7 ± 1.6 µg/mL (≈ 15.5 µM). Besides, the IC50 is over 30 µg/mL in assay [9] (Homo sapiens, MCF-10A, read-out: IC50); “not toxic” in assay [9]; over 30 µg/mL in assay [10] (Homo sapiens, read-out: IC50); “not toxic” in assay [10]. For the same compound, the “OD value (BrdU ELISA, 450 nm)” value in assay [11] (24 hours, untreated 1.34) was determined as 0.8; in assay [11] (48 hours, untreated 1.26), 0.78; in assay [11] (72 hours, untreated 1.65), 0.66; in assay [12] (24 hours, untreated 1.44), 0.89; in assay [12] (48 hours, untreated 2.08), 0.75; in assay [12] (72 hours, untreated 2.88), 0.66. In addition, the “mode of cell death (AO/PI morphology)” value in assay [13] and in assay [14] was “kill both cells in apoptotic manner” each time.

`COc1cccc2c1C(=O)c1c(O)c3c(c(O)c1C2=O)C[C@@](O)(C(=O)CO)C[C@@H]3O[C@H]1C[C@H](N)[C@H](O)[C@H](C)O1` [Doxorubicin, reference compound]: the IC50 was 0.2 ± 0.03 µg/mL (≈ 0.368 µM) in assay [1]; 0.2 ± 0.06 µg/mL (≈ 0.368 µM) in assay [3]; over 30 µg/mL in assay [10] (Homo sapiens, read-out: IC50).
